Data taken from the supplement of paper PMC10307832.

How the values were obtained:
Test in all cases: relative viability (nuclei count vs DMSO), 5 days (fraction); higher = more cells survive
[1] = compound: CN(C)C(=N)NC(=N)N [Metformin] + COc1cccc2cc(-c3nc([C@H]4CC[C@H](C(=O)O)CC4)n4ncnc(N)c34)[nH]c12 [OSI-027] (partner 0.5 µM)
Outline: (§1)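 Lung cancer cell lines were seeded in 1536-well plates and dosed by pin tool the next day, with either a single drug or a fixed anchor-drug dose combined with five library-drug doses (not always all listed) spaced in √10 steps. Five days later, one step fixed the cells and stained their nuclei (final 0.05% Triton X-100, 1% formaldehyde, 1 ug/ml Hoechst), and nuclei were counted on 4× images. Relative viability is the nuclei count in treated wells divided by the count in vehicle wells, and each value is the median of duplicate plates.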

[2] = compound: CN(C)C(=N)NC(=N)N [Metformin] + CS(=O)(=O)N1CCN(Cc2cc3nc(-c4cccc5[nH]ncc45)nc(N4CCOCC4)c3s2)CC1 [Pictilisib] (partner 1 µM)
Outline: as §1

[3] = compound: CN(C)C(=N)NC(=N)N [Metformin] + C[C@]1(O)C[C@@H](c2nc(-c3ccc4ccc(-c5ccccc5)nc4c3)c3c(N)nccn32)C1 [Linsitinib] (partner 1 µM)
Outline: as §1

[4] = compound: CN(C)C(=N)NC(=N)N [Metformin] + Cc1cc(Nc2cc(N3CCN(C)CC3)nc(Sc3ccc(NC(=O)C4CC4)cc3)n2)n[nH]1 [Tozasertib] (partner 0.1 µM)
Outline: as §1

Cell Line | relative viability ([1]; first compound 31.62 µM) | relative viability ([1]; first compound 100 µM) | relative viability ([1]; first compound 316.23 µM) | relative viability ([1]; first compound 1000 µM) | relative viability ([2]; first compound 31.62 µM) | relative viability ([2]; first compound 100 µM) | relative viability ([2]; first compound 316.23 µM) | relative viability ([2]; first compound 1000 µM) | relative viability ([3]; first compound 31.62 µM) | relative viability ([3]; first compound 100 µM) | relative viability ([3]; first compound 316.23 µM) | relative viability ([3]; first compound 1000 µM) | relative viability ([4]; first compound 31.62 µM) | relative viability ([4]; first compound 100 µM) | relative viability ([4]; first compound 316.23 µM) | relative viability ([4]; first compound 1000 µM) | relative viability ([1]; first compound 10 µM) | relative viability ([2]; first compound 10 µM) | relative viability ([3]; first compound 10 µM) | relative viability ([4]; first compound 10 µM)
LC-2-ad | 0.69 | 0.693 | 0.531 | 0.588 | 0.471 | 0.334 | 0.426 | 0.408 | 0.716 | 0.628 | 0.695 | 0.678 | 0.412 | 0.524 | 0.469 | 0.506 |  |  |  | 
NCI-H2085 | 0.54 | 0.721 | 0.718 | 0.703 | 0.492 | 0.472 | 0.439 | 0.545 | 0.8 | 0.765 | 0.844 | 0.875 | 0.746 | 0.896 | 0.773 | 0.841 | 0.649 | 0.408 | 0.822 | 0.85
RERF-LC-KJ | 0.503 | 0.492 | 0.394 | 0.415 | 0.55 | 0.53 | 0.402 | 0.614 | 0.769 | 0.857 | 0.768 | 0.829 | 0.273 | 0.403 | 0.277 | 0.352 | 0.521 | 0.57 | 0.835 | 0.329
LOU-NH91 | 0.71 | 0.644 | 0.775 | 0.767 | 0.469 | 0.53 | 0.496 | 0.549 | 0.876 | 0.986 | 1.09 | 0.905 | 0.633 | 0.703 | 0.633 | 0.65 | 0.711 | 0.555 | 1.01 | 0.595
NCI-H2009 | 0.821 | 0.752 | 0.692 | 0.601 | 0.922 | 0.846 | 0.779 | 0.763 | 1.17 | 1.17 | 0.781 | 0.9 | 0.856 | 0.802 | 0.759 | 0.783 | 0.754 | 0.795 | 1.22 | 0.761
UMC-11 | 0.549 | 0.539 | 0.426 | 0.505 | 0.972 | 0.806 | 0.716 | 0.902 | 1.09 | 1.12 | 1.04 | 1.14 | 0.188 | 0.202 | 0.2 | 0.209 | 0.594 | 0.864 | 1.07 | 0.211
NCI-H2347 | 0.486 |  | 0.466 | 0.415 | 0.834 | 1.02 | 0.492 | 0.659 | 0.89 | 0.973 | 0.862 | 0.943 | 0.51 |  | 0.492 | 0.63 | 0.416 | 0.665 | 0.753 | 0.627
LU99A | 0.321 | 0.3 | 0.309 | 0.289 | 0.295 | 0.247 | 0.27 | 0.241 | 0.491 | 0.466 | 0.377 | 0.514 | 0.246 | 0.253 | 0.235 | 0.236 | 0.302 | 0.248 | 0.493 | 0.234
NCI-H3122 | 0.851 | 0.574 | 0.419 | 0.339 | 0.588 | 0.459 | 0.437 | 0.5 | 0.98 | 0.949 | 0.96 | 0.92 | 0.31 | 0.388 | 0.255 | 0.209 | 0.672 | 0.488 | 0.89 | 0.248
SW 1573 | 0.756 | 0.611 | 0.4 | 0.419 | 0.42 | 0.521 | 0.498 | 0.497 | 0.811 | 0.969 | 0.72 | 0.996 | 0.119 | 0.175 | 0.161 | 0.162 | 0.68 | 0.534 | 0.916 | 0.153
HARA | 0.6 | 0.529 | 0.47 | 0.515 | 0.468 | 0.497 | 0.496 | 0.46 | 1.07 | 1.2 | 0.872 | 1.06 | 0.0842 | 0.14 | 0.101 | 0.105 |  | 0.504 | 1.14 | 
NCI-H1793 |  | 0.315 | 0.238 | 0.253 | 0.399 | 0.304 | 0.268 | 0.38 | 1.22 | 1.14 | 1 | 1.16 |  | 0.5 | 0.469 | 0.588 | 0.395 | 0.29 | 1.3 | 0.459
NCI-H727 | 0.726 | 0.736 | 0.545 | 0.48 | 0.514 | 0.6 | 0.317 | 0.451 | 0.342 | 0.304 | 0.298 | 0.35 | 0.821 | 0.606 | 0.501 | 0.637 | 0.543 | 0.389 | 0.289 | 0.564
201T | 0.955 | 0.875 | 0.881 | 0.517 | 0.709 | 0.701 | 0.688 | 0.685 | 1.12 | 1.1 | 1.07 | 1.06 | 0.93 | 1.04 | 0.857 | 0.92 |  |  |  | 
NCI-H838 | 0.624 | 0.563 | 0.508 | 0.515 | 0.543 | 0.477 | 0.494 | 0.682 | 1.09 | 1.05 | 0.988 | 1.02 | 0.296 | 0.349 | 0.312 | 0.258 | 0.544 | 0.535 | 1.04 | 0.28
NCI-H1734 | 0.581 | 0.537 | 0.544 | 0.618 | 0.48 | 0.462 | 0.407 | 0.495 | 0.954 | 1.05 | 0.844 | 0.946 | 0.242 | 0.267 | 0.268 | 0.29 | 0.653 | 0.464 | 0.99 | 0.246
ABC-1 | 0.529 | 0.466 | 0.266 | 0.22 | 0.76 | 0.787 | 0.643 | 0.265 | 0.675 | 0.971 | 0.307 | 0.325 | 0.163 | 0.172 | 0.158 | 0.189 | 0.661 |  |  | 0.223
